Reference: ChEMBL document CHEMBL5046248, “New Pqs Quorum Sensing System Inhibitor as an Antibacterial Synergist against Multidrug-Resistant Pseudomonas aeruginosa” (J Med Chem, 2022)
Values after ≈ are worked out from the molar mass of the structure shown. Active and inactive are the calls of the source. The rule behind the calls is not given here.

Key:
[1] = test system: Pseudomonas aeruginosa; assay: Antibacterial activity against Pseudomonas aeruginosa PAO1 assessed as inhibition of biofilm formation for 24 hrs by crystal violet staining based assay; format: functional, organism-based; conditions: PAO1, 24 h
[2] = test system: Pseudomonas aeruginosa; assay: Synergistic antibacterial activity against Pseudomonas aeruginosa PAO1 assessed as reduction in bacterial viability after 12 hrs in presence of 1/2 MIC of ciprofloxacin; format: functional, organism-based
[3] = test system: Pseudomonas aeruginosa; assay: Antibiofilm activity against Pseudomonas aeruginosa PAO1 assessed as increase in pyoverdine production at 40 uM by fluorescence assay; format: functional, organism-based
[4] = test system: Pseudomonas aeruginosa; assay: Inhibition of pyocyanin expression in Pseudomonas aeruginosa PAO1-mini-[…]-pqsA-lacZ strain assessed as decrease in beta-galactosidase at 1.25 to 20 uM; format: functional; conditions: PAO1-mini-ctx-pqsA-lacZ, dose 1.25-20 µM
[5] = test system: Pseudomonas aeruginosa; assay: Antibiofilm activity against Pseudomonas aeruginosa PAO1 assessed as inhibition rate at 0.625 uM for 24 hrs by crystal violet staining based assay relative to control; format: functional
[6] = test system: Pseudomonas aeruginosa; assay: Synergistic antibacterial activity against Pseudomonas aeruginosa PAO1 assessed as reduction in bacterial viability after 12 hrs in presence of colistin E; format: functional, organism-based
[7] = test system: Pseudomonas aeruginosa; assay: Synergistic antibacterial activity against multidrug-resistant Pseudomonas aeruginosa FB assessed as reduction in bacterial viability after 12 hrs in presence of colistin E; format: functional, organism-based
[8] = test system: Pseudomonas aeruginosa; assay: Synergistic antibacterial activity against multidrug-resistant Pseudomonas aeruginosa 1129 assessed as reduction in bacterial viability after 12 hrs in presence of colistin E; format: functional, organism-based
[9] = test system: Pseudomonas aeruginosa; assay: Antibiofilm activity against Pseudomonas aeruginosa PAO1 assessed as inhibition of swimming motility for 16 hrs by motility assay; format: functional, organism-based; conditions: dose 1.25-20 µM
[10] = test system: Pseudomonas aeruginosa; assay: In vivo antibacterial activity against Pseudomonas aeruginosa PAO1-gfp infected in tail injured zebrafish model assessed as reduction in bacterial burden at 20 uM measured after 24 hrs of post infection; format: functional, organism-based
[11] = test system: Pseudomonas aeruginosa; assay: Synergistic antibacterial activity against multidrug-resistant Pseudomonas aeruginosa 1121 assessed as reduction in bacterial viability after 12 hrs in presence of 1/2 MIC of ciprofloxacin; format: functional, organism-based
[12] = test system: Pseudomonas aeruginosa; assay: Synergistic antibacterial activity against multidrug-resistant Pseudomonas aeruginosa FB assessed as reduction in bacterial viability after 12 hrs in presence of 1/2 MIC of ciprofloxacin; format: functional, organism-based
[13] = test system: Pseudomonas aeruginosa; assay: Antibiofilm activity against Pseudomonas aeruginosa PAO1 assessed as suppression of biofilm formation for 24 hrs by fluorescent dye SYTO9 and propidium iodide staining based confocal laser microscopic analysis; format: functional, organism-based; conditions: dose 0.625-10 µM
[14] = test system: Pseudomonas aeruginosa; assay: Inhibition of quorum sensing system in Pseudomonas aeruginosa PAO1 assessed as effect on rhamnolipid production at 1.25 to 20 uM for 24 hrs; conditions: dose 1.25-20 µM
[15] = test system: Pseudomonas aeruginosa; assay: Antibacterial activity against Pseudomonas aeruginosa PAO1 infected rat H9c2 cells assessed as reduction in virulence mediated cytotoxicity by measuring increase in cell viability by MTT assay; format: functional, organism-based; conditions: dose 1.25-20 µM
[16] = test system: Pseudomonas aeruginosa; assay: Synergistic antibacterial activity against Pseudomonas aeruginosa PAO1 assessed as reduction in bacterial viability after 12 hrs in presence of tobramycin; format: functional, organism-based
[17] = test system: Pseudomonas aeruginosa; assay: Inhibition of elastase expression in Pseudomonas aeruginosa PAO1-mini-[…]-lasB-lacZ strain assessed as decrease in beta-galactosidase at 1.25 to 20 uM; format: functional; conditions: PAO1-mini-[…]-lasB-[…], dose 1.25-20 µM
[18] = test system: Pseudomonas aeruginosa; assay: Antibiofilm activity against Pseudomonas aeruginosa PAO1 assessed as inhibition of twitching motility for 16 hrs by motility assay; format: functional, organism-based; conditions: dose 1.25-20 µM
[19] = test system: Pseudomonas aeruginosa; assay: Synergistic antibacterial activity against multidrug-resistant Pseudomonas aeruginosa 1129 assessed as reduction in bacterial viability after 12 hrs in presence of tobramycin; format: functional, organism-based
[20] = test system: Pseudomonas aeruginosa; assay: Antibacterial activity against Pseudomonas aeruginosa PAO1 infected rat H9c2 cells assessed as reduction in virulence mediated cytotoxicity by measuring cell survival rate at 20 uM by MTT assay (reference value: 36%); format: functional
[21] = test system: Pseudomonas aeruginosa; assay: In vivo antibacterial activity against Pseudomonas aeruginosa PAO1-gfp infected in tail injured zebrafish model assessed as reduction in mortality at 10 to 20 uM measured upto 50 hrs of post fertilization; format: functional, organism-based; conditions: dose 10-20 µM, time hrs <=50
[22] = test system: Pseudomonas aeruginosa; assay: Inhibition of quorum sensing system in Pseudomonas aeruginosa PAO1 assessed as reduction of pyocyanin expression in flask at 1.25 to 20 uM for 24 hrs; conditions: dose 1.25-20 µM
[23] = test system: Pseudomonas aeruginosa; assay: Antibiofilm activity against Pseudomonas aeruginosa PAO1 assessed as inhibition of swarming motility for 16 hrs by motility assay; format: functional, organism-based; conditions: dose 1.25-20 µM
[24] = test system: H9c2; assay: Cytotoxicity against rat H9c2 cells assessed as reduction in cell viability at 50 uM incubated for 24 hrs by MTT assay; format: toxicity, cell-based; conditions: h9c2, 24 h
[25] = test system: Pseudomonas aeruginosa; assay: Synergistic antibacterial activity against multidrug-resistant Pseudomonas aeruginosa 1121 assessed as reduction in bacterial viability after 12 hrs in presence of colistin E; format: functional, organism-based
[26] = test system: Pseudomonas aeruginosa; assay: Inhibition of beta-galactosidase expression in Pseudomonas aeruginosa PAO1-mini-[…]-lacZ strain at 1.25 to 20 uM; format: functional; conditions: dose 1.25-20 µM
[27] = test system: Pseudomonas aeruginosa; assay: Antibiofilm activity against Pseudomonas aeruginosa PAO1 assessed as effect on pyochelin production fluorescence at 1.25 to 20 uM by fluorescence assay; format: functional, organism-based; conditions: dose 1.25-20 µM
[28] = test system: Pseudomonas aeruginosa; assay: Synergistic antibacterial activity against multidrug-resistant Pseudomonas aeruginosa 1167 assessed as reduction in bacterial viability after 12 hrs in presence of colistin E; format: functional, organism-based
[29] = test system: Pseudomonas aeruginosa; assay: Inhibition of rhamnolipid expression in Pseudomonas aeruginosa PAO1-mini-[…]-rhlA-lacZ strain assessed as decrease in beta-galactosidase at 1.25 to 20 uM; format: functional; conditions: PAO1-mini-ctx-[…]-lacZ, dose 1.25-20 µM
[30] = test system: Pseudomonas aeruginosa; assay: Inhibition of quorum sensing system in Pseudomonas aeruginosa PAO1 assessed as effect on elastase production for 24 hrs; conditions: dose 1.25-20 µM
[31] = test system: Pseudomonas aeruginosa; assay: Inhibition of quorum sensing system in Pseudomonas aeruginosa PAO1 assessed as decrease of pyocyanin production at 1.25 to 20 uM for 24 hrs; conditions: dose 1.25-20 µM
[32] = test system: Pseudomonas aeruginosa; assay: Synergistic antibacterial activity against multidrug-resistant Pseudomonas aeruginosa 1129 assessed as reduction in bacterial viability after 12 hrs in presence of 1/2 MIC of ciprofloxacin; format: functional, organism-based
[33] = test system: Pseudomonas aeruginosa; assay: Synergistic antibacterial activity against multidrug-resistant Pseudomonas aeruginosa 1167 assessed as reduction in bacterial viability after 12 hrs in presence of 1/2 MIC of ciprofloxacin; format: functional, organism-based
[34] = test system: Pseudomonas aeruginosa; assay: Synergistic antibacterial activity against multidrug-resistant Pseudomonas aeruginosa FB assessed as reduction in bacterial viability after 12 hrs in presence of tobramycin; format: functional, organism-based
[35] = test system: H9c2; assay: Cytotoxicity against rat H9c2 cells assessed as reduction in cell viability at up to 25 uM incubated for 24 hrs by MTT assay; format: toxicity, cell-based; conditions: h9c2, 24 h
[36] = test system: Pseudomonas aeruginosa; assay: In vivo antibacterial activity against Pseudomonas aeruginosa PAO1-gfp infected in tail injured zebrafish model assessed as increase in survival of zebrafish at 10 to 20 uM measured upto 50 hrs of post fertilization; format: functional, organism-based; conditions: dose 10-20 µM, time hrs <=50
[37] = test system: Pseudomonas aeruginosa; assay: Antibacterial activity against Pseudomonas aeruginosa 1121 assessed as bacterial growth inhibition by broth microdilution method; format: functional
[38] = test system: Pseudomonas aeruginosa; assay: Antibacterial activity against Pseudomonas aeruginosa 1167 assessed as bacterial growth inhibition by broth microdilution method; format: functional
[39] = test system: Pseudomonas aeruginosa; assay: Antibacterial activity against Pseudomonas aeruginosa PAO1 assessed as bacterial growth inhibition by broth microdilution method; format: functional
[40] = test system: Pseudomonas aeruginosa; assay: Antibacterial activity against Pseudomonas aeruginosa 1129 assessed as bacterial growth inhibition by broth microdilution method; format: functional
[41] = test system: Pseudomonas aeruginosa; assay: Antibacterial activity against Pseudomonas aeruginosa FB assessed as bacterial growth inhibition by broth microdilution method; format: functional

Structure (SMILES): O=C(NCc1cc(=O)c(O)cn1O)c1ccc(C(F)(F)F)cc1
- IC50 [1]: > 100 µM

Structure (SMILES): CCCn1c(C)cc(=O)c(O)c1CNS(=O)(=O)c1ccc(OC)cc1
- IC50 [1]: 59.6 µM

Structure (SMILES): COCCn1c(C)cc(=O)c(O)c1CNC(=O)c1ccc(OC)cc1
- IC50 [1]: > 100 µM

Structure (SMILES): CCn1c(C)cc(=O)c(O)c1CNc1ccc(OC)cc1
- IC50 [1]: > 100 µM

Structure (SMILES): O=C(NCc1cc(=O)c(O)cn1O)c1ccccc1
- IC50 [1]: > 100 µM

Structure (SMILES): CCCCn1c(C)cc(=O)c(O)c1CNC(=O)c1ccc(OC)cc1
- Activity [2]: Dose-Dependent Effect
- Activity [3]: Active
- Activity [4]: Dose-Dependent Effect
- inhibition at 0.625 µM [5]: > 28%
- Activity [6]: Dose-Dependent Effect
- Activity [7]: Dose-Dependent Effect
- Activity [8]: Dose-Dependent Effect
- Activity [9]: Dose-Dependent Effect
- Activity [10]: Active
- Activity [11]: Dose-Dependent Effect
- Activity [12]: Dose-Dependent Effect
- Activity [13]: Dose-Dependent Effect
- Activity [14]: inactive
- Activity [15]: Dose-Dependent Effect
- Activity [16]: Dose-Dependent Effect
- Activity [17]: inactive
- Activity [18]: Dose-Dependent Effect
- Activity [19]: Dose-Dependent Effect
- IC50 [1]: 4.5 µM
- Activity [20]: 79%
- Activity [21]: Active
- Activity [22]: Active
- Activity [23]: Dose-Dependent Effect
- Activity [24]: Toxic
- Activity [25]: Dose-Dependent Effect
- Activity [26]: inactive
- Activity [27]: inactive
- Activity [28]: Dose-Dependent Effect
- Activity [29]: inactive
- Activity [30]: inactive
- Activity [31]: Dose-Dependent Effect
- Activity [32]: Dose-Dependent Effect
- Activity [33]: Dose-Dependent Effect
- Activity [34]: Dose-Dependent Effect
- Activity [35]: Non-Toxic
- Activity [36]: Active

Structure (SMILES): NC[C@H]1O[C@H](O[C@H]2[C@H](O)[C@@H](O[C@H]3O[C@H](CO)[C@@H](O)[C@H](N)[C@H]3O)[C@H](N)C[C@@H]2N)[C@H](N)C[C@@H]1O [TOBRAMYCIN]
- MIC [37]: 10 µg/mL (≈ 21.4 µM)
- MIC [38]: 10 µg/mL (≈ 21.4 µM)
- MIC [39]: 5 µg/mL (≈ 10.7 µM)
- MIC [40]: 10 µg/mL (≈ 21.4 µM)
- MIC [41]: 10 µg/mL (≈ 21.4 µM)

Structure (SMILES): CCCCn1c(C)cc(=O)c(O)c1CNC(=O)c1ccccc1OC
- IC50 [1]: 28.5 µM

Structure (SMILES): CCCn1c(C)cc(=O)c(O)c1CNC(=O)c1ccccc1OC
- IC50 [1]: 62.9 µM

Structure (SMILES): CCCCCCC(=O)NCc1cc(=O)c(O)cn1O
- IC50 [1]: > 100 µM

Structure (SMILES): CCCCCC(=O)NCc1cc(=O)c(O)cn1C
- IC50 [1]: > 100 µM

Structure (SMILES): Cn1cc(O)c(=O)cc1CNC(=O)c1ccc(C(F)(F)F)cc1
- IC50 [1]: > 100 µM

Structure (SMILES): CCCCn1c(C)cc(=O)c(O)c1CNC(=O)Cc1ccc(F)cc1
- IC50 [1]: > 100 µM

Structure (SMILES): CCCCCCC(=O)NCc1c(O)c(=O)cc(C)n1CC
- IC50 [1]: > 100 µM

Structure (SMILES): CCCn1c(C)cc(=O)c(O)c1CNC(=O)Cc1ccc(F)cc1
- IC50 [1]: > 100 µM

Structure (SMILES): CCCn1c(C)cc(=O)c(O)c1CNc1ccc(OC)cc1
- IC50 [1]: 55.5 µM

Structure (SMILES): CCCCCCCC(=O)NCc1cc(=O)c(O)cn1O
- IC50 [1]: > 100 µM

Structure (SMILES): CCCCCC(=O)NCc1c(O)c(=O)cc(C)n1CCC
- IC50 [1]: > 100 µM

Structure (SMILES): COc1ccc(CC(=O)NCc2cc(=O)c(O)cn2O)cc1
- IC50 [1]: > 100 µM

Structure (SMILES): CCn1c(C)cc(=O)c(O)c1CNC1CCCC1
- IC50 [1]: > 100 µM

Structure (SMILES): Cc1c(O)c(=O)ccn1C
- Activity [27]: inactive

Structure (SMILES): COCCn1c(C)cc(=O)c(O)c1CNC(=O)c1ccc(C(F)(F)F)cc1
- IC50 [1]: > 100 µM
